Results on 53 molecules are retold here after the PolyMetriX glass transition set.

Structures are written as SMILES.

For the molecule `*C(=O)NCCN(CCNC(=O)c1ccc2c(c1)C(=O)N(c1ccc(Oc3ccc(N4C(=O)c5ccc(*)cc5C4=O)cc3)cc1)C2=O)c1ccc(/C=C/c2ccc([N+](=O)[O-])cc2)cc1` (repeat unit), the glass transition temperature amounted to 224.00 °C. Then `*C(=O)NNC(=O)c1ccc([Si](c2ccccc2)(c2ccccc2)c2ccc(C(=O)NNC(=O)c3ccc(*)nc3)cc2)cc1` (repeat unit), with 240.00 °C; and `*C(=O)NNC(=O)c1ccc([Si](c2ccccc2)(c2ccccc2)c2ccc(C(=O)NNC(=O)c3cncc(*)c3)cc2)cc1` (repeat unit), with 234.00 °C. On to `*C(=O)Nc1cc(C(F)(F)F)ccc1Oc1cccc2c(Oc3ccc(C(F)(F)F)cc3NC(=O)c3ccc4c(c3)C(=O)N(c3ccc(Oc5ccc(N6C(=O)c7ccc(*)cc7C6=O)cc5-c5ccccc5)c(-c5ccccc5)c3)C4=O)cccc12` (repeat unit), for which the glass transition temperature was found to be 376.00 °C. In the case of `*C(=O)Nc1cc(NC(=O)c2ccc3c(c2)C(=O)N(c2cc(-c4nc5ccccc5o4)cc(N4C(=O)c5ccc(*)cc5C4=O)c2)C3=O)cc(-c2nc3ccccc3[nH]2)c1` (repeat unit) it was 371.00 °C; in that of `*C(=O)Nc1cc(NC(=O)c2ccc3c(c2)C(=O)N(c2cccc(N4C(=O)c5ccc(*)cc5C4=O)c2)C3=O)cc(-c2nc3ccccc3[nH]2)c1` (repeat unit), 361.00 °C. Regarding `*C(=O)Nc1cc(NC(=O)c2cccc(*)n2)cc(-c2nnc(-c3ccccn3)o2)c1` (repeat unit), the glass transition temperature came out at 255.00 °C. For `*C(=O)Nc1cc(NC(=O)c2cncc(*)c2)cc(-c2nnc(-c3ccccn3)o2)c1` (repeat unit), the glass transition temperature was 185.00 °C. Consider `*C(=O)Nc1ccc(-c2ccc(N3C(=O)CC(N4C(=O)c5ccc(*)cc5C4=O)C3=O)cc2)cc1` (repeat unit), for which the glass transition temperature came to 219.00 °C. Consider `*C(=O)Nc1ccc(-c2ccc(NC(=O)c3ccc4c(c3)C(=O)N(c3ccc(Oc5ccc(N6C(=O)c7ccc(*)cc7C6=O)cc5)cc3)C4=O)cc2)cc1` (repeat unit), for which the glass transition temperature amounted to 315.00 °C.

Molecule `*C(=O)Nc1ccc(-c2ccc(NC(=O)c3ccc4c(c3)C(=O)N(c3cccc(P(=O)(c5ccccc5)c5cccc(N6C(=O)c7ccc(*)cc7C6=O)c5)c3)C4=O)cc2)cc1` (repeat unit) displayed a glass transition temperature of 253.00 °C.

In turn, `*C(=O)Nc1ccc(-c2sc(-c3ccc(NC(=O)c4ccc5c(c4)C(=O)N(c4ccc(Oc6ccc7ccc(Oc8ccc(N9C(=O)c%10ccc(*)cc%10C9=O)cc8)cc7c6)cc4)C5=O)cc3)c(-c3ccccc3)c2-c2ccccc2)cc1` (repeat unit) gave a glass transition temperature of 311.00 °C. In the case of `*C(=O)Nc1ccc(-c2sc(-c3ccc(NC(=O)c4ccc5c(c4)C(=O)N(c4ccc(Oc6cccc7c(Oc8ccc(N9C(=O)c%10ccc(*)cc%10C9=O)cc8)cccc67)cc4)C5=O)cc3)c(-c3ccccc3)c2-c2ccccc2)cc1` (repeat unit) it was 340.00 °C; in that of `*C(=O)OCCCCCCCCCOC(=O)c1ccc(NC(=O)c2ccc(N3C(=O)c4ccc(*)cc4C3=O)cc2)cc1` (repeat unit), 100.00 °C. In the case of `*C(=O)c1cc(C(=O)c2ccc3c(c2)C(=O)N(c2ccc(Oc4ccc(N5C(=O)c6ccc(*)cc6C5=O)cc4)cc2)C3=O)cc(-c2ccccc2)c1` (repeat unit) it was 258.50 °C. In the case of `*C(=O)c1cc(C(=O)c2ccc3c(c2)C(=O)N(c2ccc(Oc4ccc(S(=O)(=O)c5ccc(Oc6ccc(N7C(=O)c8ccc(*)cc8C7=O)cc6)cc5)cc4)cc2)C3=O)cc(-c2ccccc2)c1` (repeat unit), the glass transition temperature came to 256.50 °C. The molecule `*C(=O)c1cc2c(cc1Cl)C(=O)N(c1cc(N3C(=O)c4cc(*)c(Cl)cc4C3=O)cc(C(F)(F)F)c1)C2=O` (repeat unit) returned a glass transition temperature of 305.00 °C. Regarding `*CCCCCCCCCCCCOC(=O)NCc1ccc(CNC(=O)O*)cc1` (repeat unit), the glass transition temperature turned out to be 45.00 °C. With `*CCCCCCCCCCOC(=O)NCc1ccc(CNC(=O)O*)cc1` (repeat unit), the glass transition temperature came to 49.00 °C. In the case of `*CCCCCCOC(=O)NCc1ccc(CNC(=O)O*)cc1` (repeat unit) it was 56.00 °C. As for `*CCCCCCOc1ccc(-c2cc(-c3ccccc3)c(-c3ccc(NC(=O)c4ccc(C(=O)Nc5ccc(-c6c(-c7ccccc7)cc(-c7ccc(O*)cc7)cc6-c6ccccc6)cc5)cc4)cc3)c(-c3ccccc3)c2)cc1` (repeat unit), the glass transition temperature came to 127.00 °C.

`*CCN(CCNC(=O)c1ccc2c(c1)C(=O)N(*)C2=O)c1ccc(/C=C/c2ccc([N+](=O)[O-])cc2)cc1` (repeat unit) had a glass transition temperature of 142.00 °C. As to `*CCNC(=O)c1ccc(C(=O)N*)c(Oc2ccccc2)c1` (repeat unit), the glass transition temperature was found to be 164.00 °C. Consider `*CCNC(=O)c1ccc(O*)cc1` (repeat unit), for which the glass transition temperature was 150.00 °C. `*CCNC(=O)c1ccc([Si](c2ccccc2)(c2ccccc2)c2ccc(C(=O)NCCN(*)c3ccc(/C=C/c4ccc([N+](=O)[O-])cc4)cc3)cc2)cc1` (repeat unit) displayed a glass transition temperature of 165.00 °C.

In turn, `*CCNC(=O)c1cccc(O*)c1` (repeat unit) had a glass transition temperature of 106.00 °C. For the molecule `*Cc1cccc(CNC(=O)C2=C(C(=O)N*)C3C=CC2C3)c1` (repeat unit), the glass transition temperature came out at 291.00 °C.

`*Cc1cccc(CNC(=O)c2cccc(C(=O)N*)c2)c1` (repeat unit) returned a glass transition temperature of 172.00 °C. Molecule `*Cc1cccc(CNC(=O)c2ccccc2-c2ccccc2C(=O)N*)c1` (repeat unit) had a glass transition temperature of 159.00 °C. For `*NNC(=O)c1ccccc1C(=O)Nc1cccc(/C=C2\CC/C(=C\c3cccc(NC(=O)c4ccccc4C(*)=O)c3)C2=O)c1` (repeat unit), the glass transition temperature was determined as 202.10 °C.

Take `*NNC(=O)c1ccccc1C(=O)Nc1cccc(/C=C2\CCC/C(=C\c3cccc(NC(=O)c4ccccc4C(*)=O)c3)C2=O)c1` (repeat unit): the glass transition temperature is 195.00 °C. `*Nc1c(-c2ccccc2)cc(-c2ccc(-c3cc(-c4ccccc4)c(NC(=O)c4ccc(C(*)=O)cc4)c(-c4ccccc4)c3)cc2)cc1-c1ccccc1` (repeat unit): the glass transition temperature is 135.00 °C.

`*Nc1cc(NC(=O)NC2CCC(CC3CCC(NC(*)=O)CC3)CC2)cc(C(=O)Nc2ccc3c(c2)C(=O)c2ccccc2C3=O)c1` (repeat unit) displayed a glass transition temperature of 148.00 °C. Take `*Nc1cc(NC(=O)c2ccc(C(*)=O)cc2)cc(C(=O)OC(c2ccccc2)c2ccccc2)c1` (repeat unit): the glass transition temperature is 217.00 °C.

Take `*Nc1cc(NC(=O)c2cccc(C(*)=O)c2)cc(-c2nnc(-c3ccccn3)o2)c1` (repeat unit): the glass transition temperature was determined as 155.00 °C. For `*Nc1ccc(-c2ccc(NC(=O)c3cccc(C(*)=O)c3)c(S)c2)cc1S` (repeat unit), the glass transition temperature is 395.00 °C. Then `*Nc1cccc(/C=C/c2ccc(NC(=O)c3cccc(C(*)=O)c3)cc2)c1` (repeat unit), with 272.00 °C; and `*Nc1cccc(C#Cc2ccc(NC(=O)c3cccc(C(*)=O)c3)cc2)c1` (repeat unit), with 268.00 °C. Molecule `*Nc1cccc2c1C(=O)c1cccc(N[Se]*)c1C2=O` (repeat unit) returned a glass transition temperature of 52.00 °C. Then `*Oc1ccc(C(=O)NNC(=O)c2ccc(*)cc2)cc1` (repeat unit), with 263.00 °C; and `*Oc1ccc(C(=O)NNC(=O)c2ccc(C(=O)NNC(=O)c3ccc(OC(=O)c4cccc(C(*)=O)c4)cc3)cc2Oc2ccccc2)cc1` (repeat unit), with 160.00 °C; and `*Oc1ccc(C(=O)Nc2ccc(Br)cc2-c2ccc(NC(=O)c3ccc(*)cc3)cc2)cc1` (repeat unit), with 249.00 °C. `*Oc1ccc(C(=O)c2ccc(NC(=O)c3ccc(C(=O)Nc4ccc(C(=O)c5ccc(*)cc5)cc4)cc3)cc2)cc1` (repeat unit) registered a glass transition temperature of 187.00 °C. In the case of `*Oc1ccc(C(=O)c2ccc(NC(=O)c3cccc(C(=O)Nc4ccc(C(=O)c5ccc(*)cc5)cc4)c3)cc2)cc1` (repeat unit) it was 214.00 °C; in that of `*Oc1ccc(CNC(=O)c2ccc(C(=O)NCc3ccc(OC4COC5C(*)COC45)cc3)cc2)cc1` (repeat unit), 122.00 °C.

In turn, `*Oc1ccc(Oc2ccc(C(=O)c3ccc(-c4ccc(C(=O)c5ccc(*)cc5)cc4)cc3)cc2)cc1-c1ccccc1` (repeat unit) showed a glass transition temperature of 186.00 °C.

Molecule `*c1cc(C(=O)Nc2ccc(-c3nnc(*)o3)cc2)cc(N2C(=O)c3ccccc3C2=O)c1` (repeat unit) yielded a glass transition temperature of 324.00 °C. `*c1ccc(-c2ccc(NC(=O)c3cccc(C(=O)Nc4ccc(-c5ccc(-n6c(=O)c7cc8c(=O)n(*)c(=O)c8cc7c6=O)cc5)cc4)c3)cc2)cc1` (repeat unit) displayed a glass transition temperature of 227.00 °C. `*c1ccc(-c2ccc(NC(=O)c3cccc(C(=O)Nc4ccc(-c5ccc(N6C(=O)c7ccc(Oc8ccc9c(c8)C(=O)N(*)C9=O)cc7C6=O)cc5)cc4)c3)cc2)cc1` (repeat unit) showed a glass transition temperature of 233.00 °C. Then `*c1ccc(C(=O)c2ccc(-n3c(=O)c4cc5c(=O)n(*)c(=O)c5cc4c3=O)cc2)cc1` (repeat unit), with 424.00 °C; and `*c1ccc(NC2CC(=O)N(c3ccc(Cc4ccc(N5C(=O)CC(Nc6ccc(-c7nc(-c8ccc(/N=N/c9ccc([N+](=O)[O-])cc9)cc8)[nH]c7*)cc6)C5=O)cc4)cc3)C2=O)cc1` (repeat unit), with 258.00 °C; and `*c1ccc(Nc2nc(Nc3ccc(-c4nc5cc(-c6ccc7[nH]c(*)nc7c6)ccc5[nH]4)cc3)nc(N(c3ccccc3)c3ccccc3)n2)cc1` (repeat unit), with 329.00 °C. In the case of `*c1ccc2c(c1)C(=O)N(c1cccc(C(=O)Nc3ccc(-c4ccc(NC(=O)c5cccc(N6C(=O)c7ccc(C(*)(C(F)(F)F)C(F)(F)F)cc7C6=O)c5)cc4)cc3)c1)C2=O` (repeat unit), the glass transition temperature was 324.00 °C.
